{
  "source": "paper PMC6327044",
  "about": "“A chemical biology screen identifies a vulnerability of neuroendocrine cancer cells to SQLE inhibition” (Nature Communications, 2019)",
  "assay_in_all_cases": "cells",
  "design_in_all_cases": "species or system panel of 482 human cancer cell lines; ATPLite luminescence growth inhibition after treatment, nine-point dilution curve, 482 cancer cell lines, 384-well",
  "details_in_all_cases": "72 h, recommended growth medium",
  "key": {"[1]": {"test_system": "JVM13_HAEMATOPOIETIC_AND_LYMPHOID_TISSUE", "how_it_was_run": "(§1)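 Growth inhibition was measured across a panel of 482 cancer cell lines. Cells were plated at 500 cells per well in recommended growth media in black, tissue culture treated 384-well plates, centrifuged to equilibrate, and incubated 24 h before dosing. Compounds were tested as nine-point dilution curves for 72 h, with viability read by ATPLite luminescence relative to DMSO-treated controls.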"}, "TGBC11TKB_STOMACH": {"test_system": "TGBC11TKB_STOMACH", "how_it_was_run": "as §1"}, "JHH6_LIVER": {"test_system": "JHH6_LIVER", "how_it_was_run": "as §1"}, "DU4475_BREAST": {"test_system": "DU4475_BREAST", "how_it_was_run": "as §1"}, "SNU16_STOMACH": {"test_system": "SNU16_STOMACH", "how_it_was_run": "as §1"}, "MKN45_STOMACH": {"test_system": "MKN45_STOMACH", "how_it_was_run": "as §1"}, "SNU61_LARGE_INTESTINE": {"test_system": "SNU61_LARGE_INTESTINE", "how_it_was_run": "as §1"}, "NCIH1836_LUNG": {"test_system": "NCIH1836_LUNG", "how_it_was_run": "as §1"}, "NCIH1581_LUNG": {"test_system": "NCIH1581_LUNG", "how_it_was_run": "as §1"}, "HEP3B217_LIVER": {"test_system": "HEP3B217_LIVER", "how_it_was_run": "as §1"}, "[2]": {"test_system": "MM1R_HAEMATOPOIETIC_AND_LYMPHOID_TISSUE", "how_it_was_run": "as §1"}, "[3]": {"test_system": "KMS34_HAEMATOPOIETIC_AND_LYMPHOID_TISSUE", "how_it_was_run": "as §1"}, "NCIH661_LUNG": {"test_system": "NCIH661_LUNG", "how_it_was_run": "as §1"}, "[4]": {"test_system": "SUDHL5_HAEMATOPOIETIC_AND_LYMPHOID_TISSUE", "how_it_was_run": "as §1"}, "[5]": {"test_system": "SUDHL6_HAEMATOPOIETIC_AND_LYMPHOID_TISSUE", "how_it_was_run": "as §1"}, "HEC1A_ENDOMETRIUM": {"test_system": "HEC1A_ENDOMETRIUM", "how_it_was_run": "as §1"}},
  "data": [
    {"smiles": "CCN(C/C=C/C#CC(C)(C)C)Cc1cccc(OCc2cc(-c3ccsc3)cs2)c1", "note": "[NB-598]", "values": [
      {"measurement": "GI50", "setting": "[1]", "value": 9610, "unit": "nM"},
      {"measurement": "GI50", "setting": "TGBC11TKB_STOMACH", "value": 2980, "unit": "nM"},
      {"measurement": "GI50", "setting": "JHH6_LIVER", "value": 8890, "unit": "nM"},
      {"measurement": "GI50", "setting": "DU4475_BREAST", "value": 61.7, "unit": "nM"},
      {"measurement": "GI50", "setting": "SNU16_STOMACH", "value": 27.3, "unit": "nM"},
      {"measurement": "GI50", "setting": "MKN45_STOMACH", "value": 605, "unit": "nM"},
      {"measurement": "GI50", "setting": "SNU61_LARGE_INTESTINE", "value": 280, "unit": "nM"},
      {"measurement": "GI50", "setting": "NCIH1836_LUNG", "value": 14.7, "unit": "nM"},
      {"measurement": "GI50", "setting": "NCIH1581_LUNG", "value": 12.4, "unit": "nM"},
      {"measurement": "GI50", "setting": "HEP3B217_LIVER", "value": 9960, "unit": "nM"},
      {"measurement": "GI50", "setting": "[2]", "value": 8870, "unit": "nM"},
      {"measurement": "GI50", "setting": "[3]", "value": 2070, "unit": "nM"},
      {"measurement": "GI50", "setting": "NCIH661_LUNG", "value": 28900, "unit": "nM"},
      {"measurement": "GI50", "setting": "[4]", "value": 25.5, "unit": "nM"},
      {"measurement": "GI50", "setting": "[5]", "value": 78.9, "unit": "nM"},
      {"measurement": "GI50", "setting": "HEC1A_ENDOMETRIUM", "value": 12600, "unit": "nM"}
    ]}
  ]
}
